Measured values published in patent US20230150986A1, “ANTAGONISTS OF THE MUSCARINIC ACETYLCHOLINE RECEPTOR M4” (Vanderbilt University, priority 2019, published 2023).
Read-outs that look alike come from different tables or passages of the source.

Columns and labels:
mice = conditions: cited from earlier work
cytochrome P450 2D6 = molecular target: T1, cytochrome P450 2D6 (Homo sapiens, UniProt P10635); assay: Cytochrome P450 cocktail inhibition assay, 2D6 (dextromethorphan); type: in vitro ADME; conditions: human liver microsomes 0.1 mg/mL; read-out: CYP Inhibition (2D6)
T1 construct: human liver microsomes (HLM; 0.1 mg/mL); from tissue; host or cells: human liver microsomes
T1 sequence (P10635 whole entry): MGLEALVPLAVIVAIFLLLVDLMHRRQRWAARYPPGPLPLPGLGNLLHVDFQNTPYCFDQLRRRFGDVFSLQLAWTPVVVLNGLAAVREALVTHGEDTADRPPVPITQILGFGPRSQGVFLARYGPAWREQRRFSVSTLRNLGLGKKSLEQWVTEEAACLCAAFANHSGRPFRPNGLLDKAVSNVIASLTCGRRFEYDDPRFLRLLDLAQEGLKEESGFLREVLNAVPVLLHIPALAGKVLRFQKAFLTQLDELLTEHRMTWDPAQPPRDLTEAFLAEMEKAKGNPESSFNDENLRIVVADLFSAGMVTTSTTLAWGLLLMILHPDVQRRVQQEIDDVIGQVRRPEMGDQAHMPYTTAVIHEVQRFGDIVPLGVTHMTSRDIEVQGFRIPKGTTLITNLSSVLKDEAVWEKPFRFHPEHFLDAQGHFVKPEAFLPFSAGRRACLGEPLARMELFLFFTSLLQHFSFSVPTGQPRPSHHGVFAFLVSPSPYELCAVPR
Protocol: (§1) Solutions of substrates for cytochrome P450 enzymes (1A2: Phenacetin, 10 μM; 2C9: Diclofenac, 5 μM; 2D6: Dextromethorphan, 5 μM; 3A4: Midazolam, 2 μM; as a mixture), test compound (VU6028418; multiple concentrations), and the positive control for pan-P450 inhibition (miconazole; multiple concentrations) were prepared. A reaction mixture of assay buffer (100 mM Kpi at pH 7.4), human liver microsomes (HLM; 0.1 mg/mL), and the substrate mixture were aliquoted into a 96-deepwell plate. The test compound and control were then added to the plate such that the final concentration of test compound ranged from 0.1-30 μM (two replicates per concentration). The assay plate was vortexed (briefly) and pre-incubated at 37° C. in an orbital shaker for 15 minutes. The reaction was initiated by addition of NADPH (1 mM, final concentration) and continued for 8 min before it was quenched by acetonitrile (2× volume) containing an LCMS internal standard (carbamazepine, 50 nM). The plate was then centrifuged (4000 rcf, 4° C., 10 min), and the resulting supernatant was diluted with water (1× volume) for LC-MS/MS. Assay samples were analyzed via electrospray ionization on an AB Sciex API-4000 (Foster City, Calif.) triple-quadrupole mass spectrometer coupled to Agilent Technologies 1290 Infinity series pumps (Santa Clara, Calif.), and a Leap Technologies CTC PAL auto -sampler (Carrboro, NC). Analytes were separated by gradient elution on a Phenomenex Kinetex (C18 2.1×50 mm 5 μm) column (Torrance, Calif.) thermostated at 40° C. The HPLC mobile phase A was 0.1% formic acid in water (pH unadjusted), and the mobile phase B was 0.1% formic acid in acetonitrile (pH unadjusted). […] The total run time was 2.5 min and the HPLC flow rate was 0.5 mL/min. The source temperature was set at 500° C. and mass spectral analyses were performed using multiple reaction monitoring (MRM) with mass transitions specific to each substrate's metabolite utilizing a Turbo-Ionspray® source in positive ionization mode (5.0 kV spray voltage). The test compound and control IC50 values for each enzyme were obtained by quantitating the inhibition of metabolite formation for each substrate. A 0 μM test compound (or control) conditions represented 100% enzymatic activity, and the effect of increasing test compound concentrations on enzymatic activity was then calculated from the % of control activity. Inhibition curves were fitted using XLfit 5.2.2 (four-parameter logistic model, equation 201) in order to calculate the concentration that produced half-maximal inhibition (IC50) of each enzyme.

P-gp = molecular target: T2, P-gp (Homo sapiens, UniProt P08183); assay: P-gp efflux in MDR1-MDCK cell monolayers; type: in vitro ADME; conditions: dog, pH 7.4, MDCK-MDR1, 5 μM
T2 construct: expressed in transfected cells; host or cells: MDR1-MDCK
T2 sequence (P08183 whole entry): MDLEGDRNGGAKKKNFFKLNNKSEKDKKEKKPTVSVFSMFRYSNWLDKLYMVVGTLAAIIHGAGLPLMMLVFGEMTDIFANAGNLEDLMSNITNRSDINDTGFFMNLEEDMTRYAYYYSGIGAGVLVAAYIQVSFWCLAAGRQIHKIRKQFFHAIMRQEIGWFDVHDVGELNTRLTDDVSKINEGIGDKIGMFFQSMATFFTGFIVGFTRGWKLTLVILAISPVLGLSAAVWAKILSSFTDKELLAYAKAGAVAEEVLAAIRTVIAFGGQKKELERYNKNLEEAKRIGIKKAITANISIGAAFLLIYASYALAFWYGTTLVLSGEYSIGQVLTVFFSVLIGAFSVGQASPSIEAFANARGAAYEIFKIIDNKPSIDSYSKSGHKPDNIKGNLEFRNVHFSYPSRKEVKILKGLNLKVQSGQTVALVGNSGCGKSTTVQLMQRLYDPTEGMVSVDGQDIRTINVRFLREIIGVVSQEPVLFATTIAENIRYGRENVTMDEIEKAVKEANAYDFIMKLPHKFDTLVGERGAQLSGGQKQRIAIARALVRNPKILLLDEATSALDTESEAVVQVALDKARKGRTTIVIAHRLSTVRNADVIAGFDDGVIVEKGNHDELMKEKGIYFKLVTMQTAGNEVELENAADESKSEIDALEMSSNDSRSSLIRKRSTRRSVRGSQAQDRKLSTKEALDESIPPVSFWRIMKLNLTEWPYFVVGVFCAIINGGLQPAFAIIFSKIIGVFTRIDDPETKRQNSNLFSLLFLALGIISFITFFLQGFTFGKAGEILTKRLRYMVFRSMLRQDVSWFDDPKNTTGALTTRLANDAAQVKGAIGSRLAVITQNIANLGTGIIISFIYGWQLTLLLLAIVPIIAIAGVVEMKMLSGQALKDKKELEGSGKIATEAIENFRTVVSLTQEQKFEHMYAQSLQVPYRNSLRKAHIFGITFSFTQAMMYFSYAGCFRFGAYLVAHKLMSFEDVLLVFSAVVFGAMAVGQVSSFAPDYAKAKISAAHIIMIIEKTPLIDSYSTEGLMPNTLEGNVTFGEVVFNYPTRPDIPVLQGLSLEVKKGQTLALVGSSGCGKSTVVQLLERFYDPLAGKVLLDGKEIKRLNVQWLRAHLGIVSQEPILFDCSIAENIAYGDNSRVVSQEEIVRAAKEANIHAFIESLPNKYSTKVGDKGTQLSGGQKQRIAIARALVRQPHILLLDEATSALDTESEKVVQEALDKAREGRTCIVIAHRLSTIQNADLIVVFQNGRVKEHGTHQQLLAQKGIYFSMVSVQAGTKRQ
Protocol: MDR1-MDCK cell monolayers were grown to confluence on collagen-coated, microporous membranes in 12-well assay plates. The permeability assay buffer was Hanks' balanced salt solution containing 10 mM HEPES and 15 mM glucose at a pH of 7.4. The buffer in the receiver chamber also contained 1% bovine serum albumin. The dosing solution concentration was 5 μM of test article in the assay buffer. Cell monolayers were dosed on the apical side (A- to -B) or basolateral side (B- to -A) and incubated at 37° C. with 5% CO2 in a humidified incubator. Samples were taken from the donor and receiver chambers at 120 minutes Each determination was performed in duplicate. The flux of lucifer yellow was also measured post-experimentally for each monolayer to ensure no damage was inflicted to the cell monolayers during the flux period. All samples were assayed by LC-MS/MS using electrospray ionization.

cytochrome P450 3A4 = molecular target: T3, cytochrome P450 3A4 (Homo sapiens, UniProt P08684); assay: Cytochrome P450 cocktail inhibition assay, 3A4 (midazolam); type: in vitro ADME; conditions: human liver microsomes 0.1 mg/mL; read-out: CYP Inhibition (3A4)
T3 construct: human liver microsomes (HLM; 0.1 mg/mL); from tissue; host or cells: human liver microsomes
T3 sequence (P08684 whole entry): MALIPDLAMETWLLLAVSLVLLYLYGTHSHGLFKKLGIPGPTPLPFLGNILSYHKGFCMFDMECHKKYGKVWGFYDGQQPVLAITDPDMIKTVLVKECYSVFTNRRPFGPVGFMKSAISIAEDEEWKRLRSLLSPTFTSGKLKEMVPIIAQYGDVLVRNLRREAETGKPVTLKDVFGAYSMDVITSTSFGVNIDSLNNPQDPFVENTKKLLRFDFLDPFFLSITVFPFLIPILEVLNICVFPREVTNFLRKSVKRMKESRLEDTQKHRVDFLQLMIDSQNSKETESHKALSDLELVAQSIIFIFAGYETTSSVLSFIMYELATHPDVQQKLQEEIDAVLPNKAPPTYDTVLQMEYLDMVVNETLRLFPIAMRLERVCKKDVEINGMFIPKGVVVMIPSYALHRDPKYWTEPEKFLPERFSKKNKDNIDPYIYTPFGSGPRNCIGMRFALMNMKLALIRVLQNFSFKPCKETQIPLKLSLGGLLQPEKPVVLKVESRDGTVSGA
Protocol: as §1

cytochrome P450 1A2 = molecular target: T4, cytochrome P450 1A2 (Homo sapiens, UniProt P05177); assay: Cytochrome P450 cocktail inhibition assay, 1A2 (phenacetin); type: in vitro ADME; conditions: human liver microsomes 0.1 mg/mL; read-out: CYP Inhibition (1A2)
T4 construct: human liver microsomes (HLM; 0.1 mg/mL); from tissue; host or cells: human liver microsomes
T4 sequence (P05177 1-516): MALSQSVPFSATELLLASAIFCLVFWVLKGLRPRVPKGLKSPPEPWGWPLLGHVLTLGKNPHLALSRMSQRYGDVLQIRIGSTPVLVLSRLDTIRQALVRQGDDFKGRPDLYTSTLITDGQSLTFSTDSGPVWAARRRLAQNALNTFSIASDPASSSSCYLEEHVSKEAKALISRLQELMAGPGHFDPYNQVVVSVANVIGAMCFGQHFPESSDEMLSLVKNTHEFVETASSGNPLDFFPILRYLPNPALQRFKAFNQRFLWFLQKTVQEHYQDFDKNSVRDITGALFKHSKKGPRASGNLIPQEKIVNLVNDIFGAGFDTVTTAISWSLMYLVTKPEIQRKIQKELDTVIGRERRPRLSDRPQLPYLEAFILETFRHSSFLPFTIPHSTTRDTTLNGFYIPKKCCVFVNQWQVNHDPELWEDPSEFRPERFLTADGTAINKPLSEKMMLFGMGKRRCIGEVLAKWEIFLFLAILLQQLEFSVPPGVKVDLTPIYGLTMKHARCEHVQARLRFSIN
Protocol: as §1

cytochrome P450 2C9 = molecular target: T5, cytochrome P450 2C9 (Homo sapiens, UniProt P11712); assay: Cytochrome P450 cocktail inhibition assay, 2C9 (diclofenac); type: in vitro ADME; conditions: human liver microsomes 0.1 mg/mL; read-out: CYP Inhibition (2C9)
T5 construct: human liver microsomes (HLM; 0.1 mg/mL); from tissue; host or cells: human liver microsomes
T5 sequence (P11712 whole entry): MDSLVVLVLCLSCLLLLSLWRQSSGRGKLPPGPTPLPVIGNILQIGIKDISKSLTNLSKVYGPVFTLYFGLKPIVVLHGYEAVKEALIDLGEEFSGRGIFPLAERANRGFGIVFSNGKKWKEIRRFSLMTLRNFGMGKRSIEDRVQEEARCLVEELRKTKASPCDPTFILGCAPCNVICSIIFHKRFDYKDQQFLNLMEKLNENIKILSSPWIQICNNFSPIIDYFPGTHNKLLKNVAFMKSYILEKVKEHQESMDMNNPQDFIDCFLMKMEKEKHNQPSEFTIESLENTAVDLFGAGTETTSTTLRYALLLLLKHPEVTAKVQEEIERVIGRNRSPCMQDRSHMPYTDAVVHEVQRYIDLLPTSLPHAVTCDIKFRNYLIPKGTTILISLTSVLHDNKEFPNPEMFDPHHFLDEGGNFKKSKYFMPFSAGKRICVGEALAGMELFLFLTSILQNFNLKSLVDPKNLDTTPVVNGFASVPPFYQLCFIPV
Protocol: as §1

Human M4 = molecular target: T6, Human M4 (Homo sapiens, UniProt P08173); assay: mAChR M4 cell-based functional assay (calcium flux, decrease of EC80 acetylcholine response); conditions: for Human M4 Emin: % ACh maximum at 30 μM; for IC50: CHO-K1 cells with human M4 and Gqi5, EC80 acetylcholine
T6 construct: Human or rat M4 cDNA, along with the chimeric G protein Gq,5, were transfected into Chinese hamster ovary (CHO-K1) cells; expressed in transfected cells; host or cells: CHO-K1 (M4/Gqi5/CHO)
T6 sequence (P08173 1-479): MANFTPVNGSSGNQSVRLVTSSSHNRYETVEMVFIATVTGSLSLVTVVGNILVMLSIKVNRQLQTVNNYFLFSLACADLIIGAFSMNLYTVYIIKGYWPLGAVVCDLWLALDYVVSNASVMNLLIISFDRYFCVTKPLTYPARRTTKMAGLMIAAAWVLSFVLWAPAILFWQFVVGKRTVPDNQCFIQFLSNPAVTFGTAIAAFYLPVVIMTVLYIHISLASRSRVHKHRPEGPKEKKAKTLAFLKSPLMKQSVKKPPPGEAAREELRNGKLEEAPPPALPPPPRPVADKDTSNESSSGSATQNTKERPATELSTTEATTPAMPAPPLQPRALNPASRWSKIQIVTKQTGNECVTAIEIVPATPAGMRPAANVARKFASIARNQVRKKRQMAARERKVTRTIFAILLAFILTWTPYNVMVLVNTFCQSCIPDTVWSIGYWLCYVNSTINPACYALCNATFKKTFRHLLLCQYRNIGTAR
Procedure, shortened: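 CHO-K1 cells stably co-expressing M4 with chimeric Gqi5, loaded with Fluo-4 AM for 50 min at 37 °C; compounds added as 10-point 1:3 curves, then acetylcholine at EC20 (143 s) and EC80 (268 s). Calcium read by FDSS fluorescence ratio; IC50 from four-parameter fit of decrease in EC80 acetylcholine response.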

| SMILES | Human M4 Emin (Human M4) [%] | IC50 (Human M4) [nM] | further results |
| --- | --- | --- | --- |
| CN1[C@@H]2C[C@@H](OC(=O)[C@H](CO)c3ccccc3)C[C@H]1[C@@H]1O[C@@H]12 [scopolamine] | – | – | effect on catalepsy induced by haloperidol (mice; M4 KO mice): ineffective; effect on catalepsy induced by haloperidol (mice; WT mice): completely reversed |
| Fc1ccc(Cl)c(-c2ccc(N[C@H]3C[C@@H]4CN(Cc5ccccn5)C[C@@H]4C3)nn2)c1 [reference compound] | – | – | IC50 (cytochrome P450 2D6): > 30 µM; efflux ratio at 120 min, 5 μM (P-gp): 12.3; IC50 (cytochrome P450 3A4): 21.7 µM; IC50 (cytochrome P450 1A2): > 30000 nM; IC50 (cytochrome P450 2C9): 10.3 µM |
| Fc1ccc(Cl)c(-c2ccc(N[C@H]3C[C@@H]4CN(CC5CCOCC5)C[C@@H]4C3)nn2)c1 [reference compound] | – | – | IC50 (cytochrome P450 2D6): 5.3 µM; efflux ratio at 120 min, 5 μM (P-gp): 14; IC50 (cytochrome P450 3A4): 0.97 µM; IC50 (cytochrome P450 1A2): 1100 nM; IC50 (cytochrome P450 2C9): 0.15 µM |
| Fc1cc(F)c(F)c(-c2ccc(N[C@H]3C[C@@H]4CN(CC5CCCCO5)C[C@@H]4C3)nn2)c1 (single isomer, unassigned) [Compound 27] | 4 | 2.14 | – |
| Cc1ccc(CN2C[C@H]3C[C@H](Nc4ccc(-c5cc(F)cc(F)c5F)nn4)C[C@H]3C2)nc1 [Compound 18, (3aR,5s,6aS)-2-((5-methylpyridin-2-yl)methyl)-N-(6-(2,3,5-trifluorophenyl)pyridazin-3-yl)octahydrocyclopenta[c]pyrrol-5-amine] | 4 | 24.3 | – |
| Fc1cc(F)c(F)c(-c2ccc(N[C@H]3C[C@@H]4CN(Cc5cc(Cl)ccn5)C[C@@H]4C3)nn2)c1 [Compound 19, (3aR,5s,6aS)-2-((4-chloropyridin-2-yl)methyl)-N-(6-(2,3,5-trifluorophenyl)pyridazin-3-yl)octahydrocyclopenta[c]pyrrol-5-amine] | 3 | 133 | – |
| Fc1cc(F)c(F)c(-c2ccc(N[C@H]3C[C@@H]4CN(C5CCCCCC5)C[C@@H]4C3)nn2)c1 [Compound 6, (3aR,5s,6aS)-2-cycloheptyl-N-(6-(2,3,5-trifluorophenyl)pyridazin-3-yl)octahydrocyclopenta[c]pyrrol-5-amine] | 3 | 20.9 | – |
| CC(c1ccccn1)N1C[C@H]2C[C@H](Nc3ccc(-c4cc(F)cc(F)c4F)nn3)C[C@H]2C1 (stereo partly drawn) [Compound 13, (3aR,5s,6aS)-2-(1-(pyridin-2-yl)ethyl)-N-(6-(2,3,5-trifluorophenyl)pyridazin-3-yl)octahydrocyclopenta[c]pyrrol-5-amine] | 3 | 74.6 | – |

Continued, in another order:

| Human M4 Emin (Human M4) [%] | IC50 (Human M4) [nM] | SMILES | further results |
| --- | --- | --- | --- |
| 3 | 4 | Fc1cc(F)c(F)c(-c2ccc(N[C@H]3C[C@@H]4CN(CC5CCSCC5)C[C@@H]4C3)nn2)c1 [Compound 67, (3aR,5s,6aS)-2-((tetrahydro-2H-thiopyran-4-yl)methyl)-N-(6-(2,3,5-trifluorophenyl)pyridazin-3-yl)octahydrocyclopenta[c]pyrrol-5-amine] | – |
| 4 | 360 | Fc1ccc(CN2C[C@H]3C[C@H](Nc4ccc(-c5cc(F)cc(F)c5F)nn4)C[C@H]3C2)c(F)c1 [Compound 91, (3aR,5s,6aS)-2-(2,4-difluorobenzyl)-N-(6-(2,3,5-trifluorophenyl)pyridazin-3-yl)octahydrocyclopenta[c]pyrrol-5-amine] | – |
| 2 | 31.3 | [2H]C([2H])([C@@H]1CCOC1)N1C[C@H]2C[C@H](Nc3ccc(-c4cc(F)cc(F)c4F)nn3)C[C@H]2C1 [Compound 44, (3aR,5s,6aS)-2-(((S)-tetrahydrofuran-3-yl)methyl-d2)-N-(6-(2,3,5-trifluorophenyl)pyridazin-3-yl)octahydrocyclopenta[c]pyrrol-5-amine] | – |
| 2 | 1.2 | [2H]C([2H])(C1CCCOCC1)N1C[C@H]2C[C@H](Nc3ccc(-c4cc(F)cc(F)c4F)nn3)C[C@H]2C1 (stereo partly drawn) [Compound 78, (3aR,5s,6aS)-2-(oxepan-4-ylmethyl-d2)-N-(6-(2,3,5-trifluorophenyl)pyridazin-3-yl)octahydrocyclopenta[c]pyrrol-5-amine] | – |
| 3 | 2.1 | [2H]C([2H])([C@@H]1CC12CCOCC2)N1C[C@H]2C[C@H](Nc3ccc(-c4cc(F)cc(F)c4F)nn3)C[C@H]2C1 [Compound 77, (3aR,5s,6aS)-2-((6-oxaspiro[2.5]octan-1-yl)methyl-d2)-N-(6-(2,3,5-trifluorophenyl)pyridazin-3-yl)octahydrocyclopenta[c]pyrrol-5-amine] | – |
| 3 | 0.56 | [2H]C([2H])([C@H]1COCCO1)N1C[C@H]2C[C@H](Nc3ccc(-c4cc(F)cc(F)c4F)nn3)C[C@H]2C1 [Compound 39, (3aR,5s,6aS)-2-(((S)-1,4-dioxan-2-yl)methyl-d2)-N-(6-(2,3,5-trifluorophenyl)pyridazin-3-yl)octahydrocyclopenta[c]pyrrol-5-amine] | – |
